{"source": "patent US8791155B2", "about": "“Chroman derivatives” (Edison Pharmaceuticals, Inc., priority 2003, dated 2014)", "molecular_target": "T1, human recombinant 5-lipoxygenase (Homo sapiens, UniProt P09917)", "T1 construct": "purchased Cayman 60402", "T1 sequence (P09917 1-674)": "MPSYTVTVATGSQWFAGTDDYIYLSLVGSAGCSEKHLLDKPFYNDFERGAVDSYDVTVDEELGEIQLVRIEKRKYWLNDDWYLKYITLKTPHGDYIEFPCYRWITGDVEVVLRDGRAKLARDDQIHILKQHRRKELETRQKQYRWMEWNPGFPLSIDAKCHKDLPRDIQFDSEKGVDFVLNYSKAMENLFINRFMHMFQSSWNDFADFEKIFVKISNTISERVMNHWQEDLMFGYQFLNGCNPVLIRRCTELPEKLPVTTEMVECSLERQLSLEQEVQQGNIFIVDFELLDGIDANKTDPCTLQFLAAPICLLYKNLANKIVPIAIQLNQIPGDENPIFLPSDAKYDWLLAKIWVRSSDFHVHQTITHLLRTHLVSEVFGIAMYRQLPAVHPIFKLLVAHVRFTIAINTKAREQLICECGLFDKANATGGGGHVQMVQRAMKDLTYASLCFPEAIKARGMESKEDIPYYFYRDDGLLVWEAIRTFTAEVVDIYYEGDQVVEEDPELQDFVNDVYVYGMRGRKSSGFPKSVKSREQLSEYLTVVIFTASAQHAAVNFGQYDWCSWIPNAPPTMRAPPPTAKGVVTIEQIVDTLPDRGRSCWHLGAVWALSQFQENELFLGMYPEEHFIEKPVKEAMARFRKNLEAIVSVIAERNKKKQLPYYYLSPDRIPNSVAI", "experiment": "5-Lipoxygenase enzyme assay", "type": "biochemical", "settings": "70 μM arachidonic acid, pH 7.4, 10 minute incubation; read-out: IC50, inhibition of 5-Lipoxygenase", "excerpt": "In vitro evaluation of the ability of a composition to inhibit the enzymes 5-lipoxygenase, 15-lipoxygenase, or 12/15 lipoxygenase as described in Walidge, N. B. et al Anal. Biochem., 231: 354-358 (1995) using a high throughput colorimetric method; as well as in vitro evaluation of inhibiting LTB4 is described in Examples.\nThis procedure was used for measuring the enzymatic activity of human recombinant 5-lipoxygenase using a colorimetric method based on the ferric oxidation of xylenol orange.\n• 96 well flat bottom microfilter plates (VWR, Catalog #62402-933 9295) • Lipoxygenase screening assay buffer (Cayman, Catalog #760710) • Human recombinant 5-lipoxygenase (Cayman, Catalog #60402) • Arachidonic Acid (Sigma, Catalog #A3555) • Xylenol orange tetrasodium salt (Aldrich, Catalog #227854) • Iron (II) sulfate heptahydrate (Sigma, Catalog #F7002) • Sulfuric acid (95-98%) [18M]—Methanol Procedure\nHuman recombinant 5-lipoxygenase (Cayman Cat #60402) was used in this assay. The test compound and/or vehicle was added to 0.51-1 5-lipoxygenase in 50 mM Tris-HCl buffer, pH 7.4. The reaction was initiated by addition of 70 μM arachidonic acid in Tris-HCl buffer, pH 7.4, and terminated after a 10 minute incubation at room temperature by addition of FOX reagent (25 mM sulphuric acid, 100 μM xylenol orange, 100 μM iron (II) sulphate, methanol:water 9:1). The yellow color of acidified xylenol orange was converted to a blue color by the lipid hydroperoxide-mediated oxidation of Fe 2+ ions and the interaction of the resulting Fe 3+ ions with the dye. The complex was allowed to form during a 1 hour incubation at room temperature with shaking. Absorbance of the Fe 3+ complex was then measured at […] using a spectrophotometer.\nNegative controls contained enzyme during the incubation step but substrate was not added until after the FOX reagent.\nCompounds were screened at 5 concentrations in triplicate starting at 10 μM"}
{"smiles": "C=CCSCc1c(O)c(C)c(C)c2c1CCC(C)(C)O2", "note": "[5-Allylsulfanylmethyl-2,2,7,8-tetramethyl-chroman-6-ol]", "values": [{"measurement": "IC50", "result": "< 1000", "unit": "nM"}]}
{"smiles": "Cc1c(C)c2c(c(C)c1O)CCC(C)(C=C(Br)Br)O2", "note": "(centres unmarked) [2-(2,2-Dibromo-vinyl)-2,5,7,8-tetramethyl-chroman-6-ol]", "values": [{"measurement": "IC50", "result": "< 1000", "unit": "nM"}]}
